Experimental data published in PubChem BioAssay AID328 (DTP/NCI, 2004).
Several values for one entry are separate records, joined by “and”; a condition that tells them apart may be missing. Equal values may be shown once. Inconclusive results and toxic doses are left out.

System: BDF1 mice, P388 leukemia ip, median survival T/C
Assay: NCI In Vivo Anticancer Drug Screen. Data for tumor model P388 Leukemia (intraperitoneal) in B6D2F1 (BDF1) mice
Conditions: endpoint: median survival time, higher = longer survival
Summary of the method: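 T/C = treated-group survival ÷ vehicle-control survival; tumour transplanted into mice before dosing.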

[1] = dose: 25.0 mg/kg/injection, schedule: Q01DX009 (ip), vehicle: saline with Tween-80
[2] = dose: 50.0 mg/kg/injection, schedule: Q01DX009 (ip), vehicle: saline with Tween-80
[3] = dose: 100.0 mg/kg/injection, schedule: Q01DX009 (ip), vehicle: saline with Tween-80
[4] = dose: 100.0 mg/kg/injection, schedule: Q04DX003 (ip), vehicle: saline with Tween-80
[5] = dose: 200.0 mg/kg/injection, schedule: Q04DX003 (ip), vehicle: saline with Tween-80
[6] = dose: 50.0 mg/kg/injection, schedule: Q04DX003 (ip), vehicle: saline with Tween-80
[7] = dose: 200.0 mg/kg/injection, schedule: Q01DX009 (ip), vehicle: saline with Tween-80
[8] = dose: 400.0 mg/kg/injection, schedule: Q04DX003 (ip), vehicle: saline with Tween-80
[9] = dose: 25.0 mg/kg/injection, schedule: Q01DX009 (ip), vehicle: saline
[10] = dose: 50.0 mg/kg/injection, schedule: Q01DX009 (ip), vehicle: saline
[11] = dose: 400.0 mg/kg/injection, schedule: Q01DX009 (ip), vehicle: saline with Tween-80

With `CC1=Nc2ccccc2N=C(C)C1` the T/C [1] was 100 % of control, the T/C (dose: 50.0 mg/kg/injection, schedule: Q01DX001 (ip), vehicle: saline with Tween-80) was 100 % of control and the T/C [2] was 90 % of control. The T/C (dose: 100.0 mg/kg/injection, schedule: Q01DX001 (ip), vehicle: saline with Tween-80) was 104 % of control, the T/C [3] was 109 % of control and the T/C [4] was 100 % of control. For the same compound, the T/C (dose: 150.0 mg/kg/injection, schedule: Q01DX009 (ip), vehicle: saline with Tween-80) was 100 % of control, the T/C (dose: 200.0 mg/kg/injection, schedule: Q01DX001 (ip), vehicle: saline with Tween-80) was 100 % of control and the T/C [5] was 100 % of control.
With `O=C(CO)Nc1ccc(Br)cc1` the T/C (dose: 50.0 mg/kg/injection, schedule: Q01DX009 (ip), vehicle: Klucel (hydroxypropylcellulose) (HPC)) was 94 % of control, the T/C (dose: 100.0 mg/kg/injection, schedule: Q01DX009 (ip), vehicle: Klucel (hydroxypropylcellulose) (HPC)) was 104 % of control and the T/C (dose: 200.0 mg/kg/injection, schedule: Q01DX009 (ip), vehicle: Klucel (hydroxypropylcellulose) (HPC)) was 86 % of control.
In the case of `OC1CSC1`, the T/C (dose: 50.0 mg/kg/injection, schedule: Q01DX009 (ip), vehicle: saline + alcohol) is reported as 105 % of control, the T/C (dose: 100.0 mg/kg/injection, schedule: Q01DX009 (ip), vehicle: saline + alcohol) is reported as 100 % of control and the T/C (dose: 200.0 mg/kg/injection, schedule: Q01DX009 (ip), vehicle: saline + alcohol) is reported as 91 % of control. For the same compound, the T/C (dose: 400.0 mg/kg/injection, schedule: Q01DX009 (ip), vehicle: saline + alcohol) was 98 % of control.
With `CCCCNC(C)(C)C(SSSC(c1ccco1)C(C)(C)NCCCC)c1ccco1` (stereo not drawn) the T/C [6] was 115 % of control and the T/C [5] was 120 % of control.
With `COC(=O)c1cc(=O)nc(N/N=C/c2ccc3c(c2)OCO3)s1` the T/C (dose: 50.0 mg/kg/injection, schedule: Q01DX005 (ip), vehicle: saline with Tween-80) was 92 % of control and the T/C (dose: 200.0 mg/kg/injection, schedule: Q01DX005 (ip), vehicle: saline with Tween-80) was 96 % of control.
In the case of `C=CCN1C=CC=C/C1=C\C=C(/C#N)C(=O)OCC`, the T/C [2] is reported as 99 % of control, the T/C [3] is reported as 90 % of control and the T/C [7] is reported as 103 % of control.
In the case of `CC(=O)Oc1cc(OCCCc2ccc(F)cc2)cc2c1-c1ccccc1CC2`, the T/C [4] is reported as 99 % of control, the T/C [5] is reported as 89 % of control and the T/C [8] is reported as 97 % of control.
In the case of `O=S(=O)(CCBr)CCBr`, the T/C [2] is reported as 100 % of control, the T/C [3] is reported as 104 % of control and the T/C [4] is reported as 100 % of control. For the same compound, the T/C [5] was 100 % of control.
`CC(=O)CC(C)=O.CC(=O)CC(C)=O.c1cc[c]([Sn][c]2ccccc2)cc1` was tested, and the T/C (dose: 100.0 mg/kg/injection, schedule: Q01DX001 (ip), vehicle: Klucel (hydroxypropylcellulose) (HPC)) was 160 % of control and the T/C (dose: 200.0 mg/kg/injection, schedule: Q01DX001 (ip), vehicle: Klucel (hydroxypropylcellulose) (HPC)) was 166 % of control.
In the case of `Nc1ncc(C2OC(CO)C(O)C2O)c(=O)[nH]1` (stereo not drawn), the T/C (dose: 16.0 mg/kg/injection, schedule: Q01DX005 (ip), vehicle: saline) is reported as 123 % of control and the T/C (dose: 128.0 mg/kg/injection, schedule: Q01DX005 (ip), vehicle: saline) is reported as 150 % of control.
`COC(=O)c1ccc(-c2cc(Cl)c3cc(S(=O)(=O)F)ccc3n2)cc1` was tested, and the T/C [3] was 90 % of control and the T/C [7] was 90 % of control.
In the case of `CCCN1CCC2(CC1)COCc1ccccc12`, the T/C (dose: 50.0 mg/kg/injection, schedule: Q04DX002 (ip), vehicle: saline with Tween-80) is reported as 98 % of control and the T/C (dose: 100.0 mg/kg/injection, schedule: Q04DX002 (ip), vehicle: saline with Tween-80) is reported as 91 % of control.
For `CCCCCC(C[N+]1(C)CCOCC1)C(=O)/C=C/c1ccccc1` (stereo not drawn), the T/C (dose: 12.5 mg/kg/injection, schedule: Q01DX009 (ip), vehicle: saline) was 95 % of control, the T/C [9] was 120 % of control and the T/C [10] was 124 % of control.
`C#CCOCC(CCl)OC(=O)Nc1ccccc1` (stereo not drawn) was tested, and the T/C [9] was 95 % of control, the T/C [10] was 104 % of control and the T/C [6] was 87 % of control. For the same compound, the T/C (dose: 100.0 mg/kg/injection, schedule: Q01DX009 (ip), vehicle: saline) was 104 % of control, the T/C [4] was 95 % of control and the T/C (dose: 200.0 mg/kg/injection, schedule: Q01DX009 (ip), vehicle: saline) was 109 % of control. The T/C [8] was 100 % of control.
For `C1=C(c2ccccc2)C(c2ccccc2)C(c2ccccc2)C/C1=N/OCCN1CCCC1` (stereo not drawn), the T/C (dose: 6.0 mg/kg/injection, schedule: Q01DX009 (ip), vehicle: saline with Tween-80) was 108 % of control, the T/C (dose: 6.0 mg/kg/injection, schedule: Q04DX003 (ip), vehicle: saline with Tween-80) was 118 % of control and the T/C (dose: 8.0 mg/kg/injection, schedule: Q01DX009 (ip), vehicle: saline with Tween-80) was 100 % of control. The T/C (dose: 12.0 mg/kg/injection, schedule: Q01DX009 (ip), vehicle: saline with Tween-80) was 115 % of control, the T/C (dose: 18.0 mg/kg/injection, schedule: Q01DX009 (ip), vehicle: saline with Tween-80) was 107 % of control and the T/C (dose: 25.0 mg/kg/injection, schedule: Q04DX003 (ip), vehicle: saline with Tween-80) was 100 % of control.
`COC1CC(N=[N+]=[N-])C(OS(C)(=O)=O)C(C)O1` (stereo not drawn) was tested, and the T/C [4] was 101 % of control, the T/C [5] was 102 % of control and the T/C [8] was 101 % of control.
For `CCCOCNC(=O)c1cccnc1`, the T/C (dose: 100.0 mg/kg/injection, schedule: Q01DX001 (ip), vehicle: saline) was 95 % of control, the T/C (dose: 200.0 mg/kg/injection, schedule: Q01DX001 (ip), vehicle: saline) was 100 % of control and the T/C (dose: 400.0 mg/kg/injection, schedule: Q01DX001 (ip), vehicle: saline) was 100 % of control.
`NC(=S)N/N=C/c1ccc(OC(=O)COc2ccccc2)cn1` was tested, and the T/C (dose: 1.56 mg/kg/injection, schedule: Q01DX009 (ip), vehicle: saline with Tween-80) was 124 % of control, the T/C (dose: 12.5 mg/kg/injection, schedule: Q01DX009 (ip), vehicle: saline with Tween-80) was 163 % of control and the T/C [1] was 181 % of control. The T/C [2] was 209 % of control and the T/C [3] was 235 % of control.
For `CCC(CC)OC(=O)c1cccc(C)c1`, the T/C [6] was 104 % of control, the T/C [4] was 108 % of control and the T/C [5] was 101 % of control.
`COc1cc(C2=CC(OC)(OC)C=C(C(C)(C)C)C2=O)c(O)c(C(C)(C)C)c1` was tested, and the T/C [2] was 105 % of control, the T/C [3] was 108 % of control and the T/C [7] was 112 % of control.
For `COc1ccc(C2(C(=O)O)CCCC2)cc1`, the T/C [3] was 95 % of control, the T/C [4] was 104 % of control and the T/C [7] was 91 % of control. The T/C [5] was 100 % of control, the T/C [11] was 91 % of control and the T/C [8] was 112 % of control.
In the case of `CC(=O)OCCC(CCOC(C)=O)=C1N=C(c2ccccc2)OC1=O`, the T/C [3] is reported as 120 % of control, the T/C (dose: 300.0 mg/kg/injection, schedule: Q01DX009 (ip), vehicle: saline with Tween-80) is reported as 118 % of control and the T/C [11] is reported as 116 % of control.
For `CCCCOP(=O)(N1CC1CC)N1CC1CC` (stereo not drawn), the T/C (dose: 50.0 mg/kg/injection, schedule: Q04DX003 (ip), vehicle: saline) was 123 % of control, the T/C (dose: 60.0 mg/kg/injection, schedule: Q04DX003 (ip), vehicle: saline) was 122 % of control and the T/C (dose: 85.0 mg/kg/injection, schedule: Q04DX003 (ip), vehicle: saline) was 122 % of control. For the same compound, the T/C (dose: 100.0 mg/kg/injection, schedule: Q04DX003 (ip), vehicle: saline) was 150 % of control, the T/C (dose: 133.0 mg/kg/injection, schedule: Q04DX003 (ip), vehicle: saline with Tween-80) was 109 % of control and the T/C (dose: 133.0 mg/kg/injection, schedule: Q04DX003 (ip), vehicle: saline) was 100 % of control. For the same compound, the T/C [5] was 109 % of control and the T/C (dose: 300.0 mg/kg/injection, schedule: Q04DX003 (ip), vehicle: saline) was 176 % of control.
With `CCOC1c2cnc(C)n2C=CN1C(C)=O` (stereo not drawn) the T/C (dose: 50.0 mg/kg/injection, schedule: Q04DX003 (ip), vehicle: water) was 109 % of control, the T/C (dose: 100.0 mg/kg/injection, schedule: Q04DX003 (ip), vehicle: water) was 100 % of control and 104 % of control and the T/C (dose: 200.0 mg/kg/injection, schedule: Q04DX003 (ip), vehicle: water) was 101 % of control and 111 % of control. For the same compound, the T/C (dose: 300.0 mg/kg/injection, schedule: Q04DX003 (ip), vehicle: water) was 110 % of control and the T/C (dose: 400.0 mg/kg/injection, schedule: Q04DX003 (ip), vehicle: water) was 118 % of control.
